# “And” between values parts separate entries of the source, which are not always exact repeats. Identical values can stand only once.
# Tests used:
# Assay in all cases: radiometric filter-binding kinase assay, Kinase HotSpot
# Details in all cases: compound 0.5 µM; ATP 10 µM
# SRPK3 (human) = SRPK3 (human) (UniProt Q9UPE1)
# MKNK2 (human) = MKNK2 (human) (UniProt Q9HBH9)
# MINK1 (human) = MINK1 (human) (UniProt Q8N4C8)
# CSNK1D (human) = CSNK1D (human) (UniProt P48730)
# MAP3K2 (human) = MAP3K2 (human) (UniProt Q9Y2U5)
# NLK (human) = NLK (human) (UniProt Q9UBE8)
# EPHB2 (human) = EPHB2 (human) (UniProt P29323)
# Sequence of EPHB2 (human) (P29323 whole entry, looked up): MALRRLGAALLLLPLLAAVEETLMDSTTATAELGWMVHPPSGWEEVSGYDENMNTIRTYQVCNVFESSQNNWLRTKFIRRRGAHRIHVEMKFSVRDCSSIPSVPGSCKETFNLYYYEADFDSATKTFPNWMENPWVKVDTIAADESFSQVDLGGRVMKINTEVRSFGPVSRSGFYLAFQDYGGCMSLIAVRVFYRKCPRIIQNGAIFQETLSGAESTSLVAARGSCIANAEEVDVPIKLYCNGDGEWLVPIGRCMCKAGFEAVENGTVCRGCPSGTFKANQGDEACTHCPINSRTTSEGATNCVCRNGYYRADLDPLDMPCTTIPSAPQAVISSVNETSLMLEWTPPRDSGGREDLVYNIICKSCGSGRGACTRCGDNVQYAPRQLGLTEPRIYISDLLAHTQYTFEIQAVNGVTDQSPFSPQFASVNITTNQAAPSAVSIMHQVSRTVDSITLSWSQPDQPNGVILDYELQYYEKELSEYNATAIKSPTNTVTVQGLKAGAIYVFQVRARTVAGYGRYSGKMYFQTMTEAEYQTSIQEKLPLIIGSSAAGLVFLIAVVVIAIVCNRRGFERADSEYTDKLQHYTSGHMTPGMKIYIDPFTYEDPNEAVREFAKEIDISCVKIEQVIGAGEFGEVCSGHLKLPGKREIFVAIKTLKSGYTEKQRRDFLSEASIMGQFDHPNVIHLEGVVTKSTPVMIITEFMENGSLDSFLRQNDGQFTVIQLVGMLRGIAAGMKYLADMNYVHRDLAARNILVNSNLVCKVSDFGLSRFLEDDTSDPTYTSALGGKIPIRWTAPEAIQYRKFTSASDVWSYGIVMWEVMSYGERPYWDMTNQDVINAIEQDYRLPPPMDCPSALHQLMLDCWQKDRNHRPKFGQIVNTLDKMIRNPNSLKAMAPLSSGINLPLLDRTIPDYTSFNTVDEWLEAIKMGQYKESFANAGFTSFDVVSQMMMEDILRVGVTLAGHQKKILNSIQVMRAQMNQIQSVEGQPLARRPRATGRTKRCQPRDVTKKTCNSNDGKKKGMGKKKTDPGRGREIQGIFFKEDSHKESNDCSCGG
# DSTYK (human) = DSTYK (human) (UniProt Q6XUX3)
# PRKG1 (human) = PRKG1 (human) (UniProt Q13976)
# MARK3 (human) = MARK3 (human) (UniProt P27448)
# IRAK4 (human) = IRAK4 (human) (UniProt Q9NWZ3)
# ABL1 (human) = ABL1 (human) (UniProt P00519)
# MST4 (human) = MST4 (human) (UniProt Q9P289)
# CDK5 CDK5R1 p25 (human) = CDK5 CDK5R1 p25 (human) (UniProt Q00535+Q15078)
# CDK9 CCNK (human) = CDK9 CCNK (human) (UniProt O75909+P50750)
# Sequence of CDK9 CCNK (human) (O75909 whole entry, looked up): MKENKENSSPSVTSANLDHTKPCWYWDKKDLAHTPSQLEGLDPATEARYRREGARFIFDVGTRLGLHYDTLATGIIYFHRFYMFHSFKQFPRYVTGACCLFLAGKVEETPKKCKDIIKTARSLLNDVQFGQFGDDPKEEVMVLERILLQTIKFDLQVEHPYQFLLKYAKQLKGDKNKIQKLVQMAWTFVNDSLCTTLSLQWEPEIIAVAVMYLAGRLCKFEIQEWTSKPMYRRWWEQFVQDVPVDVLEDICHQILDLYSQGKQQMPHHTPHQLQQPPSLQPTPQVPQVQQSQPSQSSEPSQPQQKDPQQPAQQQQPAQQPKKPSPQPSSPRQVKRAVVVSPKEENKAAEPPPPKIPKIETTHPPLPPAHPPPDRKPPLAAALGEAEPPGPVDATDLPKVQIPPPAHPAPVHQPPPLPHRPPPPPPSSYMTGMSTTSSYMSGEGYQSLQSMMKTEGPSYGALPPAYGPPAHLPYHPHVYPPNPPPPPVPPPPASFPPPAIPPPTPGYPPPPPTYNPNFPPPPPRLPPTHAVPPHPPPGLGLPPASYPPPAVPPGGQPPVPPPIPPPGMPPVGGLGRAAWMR
# Sequence of CDK9 CCNK (human) (P50750 whole entry, looked up): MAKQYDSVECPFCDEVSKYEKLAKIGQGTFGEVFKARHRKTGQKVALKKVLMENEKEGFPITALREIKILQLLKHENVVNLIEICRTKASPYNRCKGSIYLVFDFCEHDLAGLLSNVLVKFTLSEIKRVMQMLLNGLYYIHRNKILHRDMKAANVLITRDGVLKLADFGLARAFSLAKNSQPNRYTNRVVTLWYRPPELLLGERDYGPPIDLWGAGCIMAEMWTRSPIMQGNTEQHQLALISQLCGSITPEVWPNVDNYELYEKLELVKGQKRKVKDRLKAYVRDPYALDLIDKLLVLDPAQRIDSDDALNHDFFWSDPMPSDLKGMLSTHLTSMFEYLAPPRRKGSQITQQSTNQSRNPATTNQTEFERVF
# SYK (human) = SYK (human) (UniProt P43405)
# FLT1 (human) = FLT1 (human) (UniProt P17948)
# PRKX (human) = PRKX (human) (UniProt P51817)
# FES (human) = FES (human) (UniProt P07332)
# Sequence of FES (human) (P07332 whole entry, looked up): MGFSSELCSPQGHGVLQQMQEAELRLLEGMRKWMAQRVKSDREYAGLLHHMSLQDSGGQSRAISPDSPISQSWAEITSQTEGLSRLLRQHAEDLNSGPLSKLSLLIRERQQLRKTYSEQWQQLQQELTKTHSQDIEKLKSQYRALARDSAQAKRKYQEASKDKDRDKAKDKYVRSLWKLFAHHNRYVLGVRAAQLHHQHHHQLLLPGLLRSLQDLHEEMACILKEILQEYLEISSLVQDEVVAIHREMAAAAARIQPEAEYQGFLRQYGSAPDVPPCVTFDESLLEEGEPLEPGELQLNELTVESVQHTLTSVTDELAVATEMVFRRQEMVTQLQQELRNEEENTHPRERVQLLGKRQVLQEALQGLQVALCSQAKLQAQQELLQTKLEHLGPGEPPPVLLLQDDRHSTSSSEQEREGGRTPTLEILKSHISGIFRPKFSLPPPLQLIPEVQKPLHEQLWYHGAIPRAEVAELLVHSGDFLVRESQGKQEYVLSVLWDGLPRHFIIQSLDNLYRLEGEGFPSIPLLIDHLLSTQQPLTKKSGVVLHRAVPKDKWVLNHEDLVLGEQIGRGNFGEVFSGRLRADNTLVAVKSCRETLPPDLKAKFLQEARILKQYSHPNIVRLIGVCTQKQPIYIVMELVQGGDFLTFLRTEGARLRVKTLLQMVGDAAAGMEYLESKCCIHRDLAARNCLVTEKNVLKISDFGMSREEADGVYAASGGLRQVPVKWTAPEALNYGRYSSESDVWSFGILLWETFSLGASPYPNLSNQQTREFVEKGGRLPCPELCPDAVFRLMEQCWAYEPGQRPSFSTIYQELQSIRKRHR
# CSK (human) = CSK (human) (UniProt P41240)
# BRSK1 (human) = BRSK1 (human) (UniProt Q8TDC3)
# MAP3K14 (human) = MAP3K14 (human) (UniProt Q99558)
# CLK3 (human) = CLK3 (human) (UniProt P49761)
# PAK7 (human) = PAK7 (human) (UniProt Q9P286)
# PRKCA (human) = PRKCA (human) (UniProt P17252)
# MAPKAPK3 (human) = MAPKAPK3 (human) (UniProt Q16644)
# ULK2 (human) = ULK2 (human) (UniProt Q8IYT8)
# DYRK1B (human) = DYRK1B (human) (UniProt Q9Y463)
# Sequence of DYRK1B (human) (Q9Y463 whole entry, looked up): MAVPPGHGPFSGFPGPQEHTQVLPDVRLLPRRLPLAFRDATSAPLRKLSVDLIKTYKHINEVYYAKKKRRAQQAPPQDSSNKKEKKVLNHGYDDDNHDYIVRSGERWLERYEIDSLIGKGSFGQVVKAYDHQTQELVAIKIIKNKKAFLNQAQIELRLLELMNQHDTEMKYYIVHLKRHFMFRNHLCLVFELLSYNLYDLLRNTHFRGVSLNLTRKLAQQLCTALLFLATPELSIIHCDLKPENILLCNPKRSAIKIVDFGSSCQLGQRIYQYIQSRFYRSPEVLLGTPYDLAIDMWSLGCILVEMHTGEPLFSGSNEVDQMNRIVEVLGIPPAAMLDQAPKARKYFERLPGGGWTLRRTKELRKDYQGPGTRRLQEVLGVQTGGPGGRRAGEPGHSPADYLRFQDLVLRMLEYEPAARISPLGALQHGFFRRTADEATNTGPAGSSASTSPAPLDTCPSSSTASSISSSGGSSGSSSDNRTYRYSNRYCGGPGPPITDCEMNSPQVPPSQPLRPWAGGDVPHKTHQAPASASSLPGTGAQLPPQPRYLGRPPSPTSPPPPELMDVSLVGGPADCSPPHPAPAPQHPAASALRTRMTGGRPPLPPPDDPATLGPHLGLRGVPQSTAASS
# PKN1 (human) = PKN1 (human) (UniProt Q16512)
# Sequence of PKN1 (human) (Q16512 whole entry, looked up): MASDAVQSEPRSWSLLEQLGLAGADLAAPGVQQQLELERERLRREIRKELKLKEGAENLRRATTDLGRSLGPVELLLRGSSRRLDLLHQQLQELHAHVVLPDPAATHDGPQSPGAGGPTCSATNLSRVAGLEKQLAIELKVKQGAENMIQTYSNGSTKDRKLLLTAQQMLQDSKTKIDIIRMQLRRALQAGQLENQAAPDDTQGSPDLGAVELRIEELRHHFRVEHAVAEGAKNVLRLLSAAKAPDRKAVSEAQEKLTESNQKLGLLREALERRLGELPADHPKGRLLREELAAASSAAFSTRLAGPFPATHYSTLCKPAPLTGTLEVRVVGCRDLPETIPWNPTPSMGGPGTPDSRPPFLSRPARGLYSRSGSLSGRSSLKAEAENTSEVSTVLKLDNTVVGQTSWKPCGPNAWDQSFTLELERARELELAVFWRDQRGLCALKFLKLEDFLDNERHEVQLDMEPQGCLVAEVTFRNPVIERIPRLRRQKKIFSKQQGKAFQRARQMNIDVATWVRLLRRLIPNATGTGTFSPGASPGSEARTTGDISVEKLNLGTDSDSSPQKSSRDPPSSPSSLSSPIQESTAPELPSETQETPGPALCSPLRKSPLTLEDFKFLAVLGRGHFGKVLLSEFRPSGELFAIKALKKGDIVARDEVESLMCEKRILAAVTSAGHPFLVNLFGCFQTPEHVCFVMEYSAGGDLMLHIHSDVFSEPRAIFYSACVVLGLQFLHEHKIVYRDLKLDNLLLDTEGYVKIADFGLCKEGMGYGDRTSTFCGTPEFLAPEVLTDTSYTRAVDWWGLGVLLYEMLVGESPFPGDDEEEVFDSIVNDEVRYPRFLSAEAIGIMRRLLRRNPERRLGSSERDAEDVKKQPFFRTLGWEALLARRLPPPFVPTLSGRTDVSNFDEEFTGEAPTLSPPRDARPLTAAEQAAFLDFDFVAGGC
# MLTK (human) = MLTK (human) (UniProt Q9NYL2)
# ABL2 (human) = ABL2 (human) (UniProt P42684)
# EPHA7 (human) = EPHA7 (human) (UniProt Q15375)
# ERBB2 (human) = ERBB2 (human) (UniProt P04626)
# NEK6 (human) = NEK6 (human) (UniProt Q9HC98)
# MAPK9 (human) = MAPK9 (human) (UniProt P45984)
# PHKG2 (human) = PHKG2 (human) (UniProt P15735)
# INSRR (human) = INSRR (human) (UniProt P14616)
# JAK2 JH1 JH2 (human) = JAK2 JH1 JH2 (human) (UniProt O60674)
# CAMKK2 (human) = CAMKK2 (human) (UniProt Q96RR4)
# CSNK1E (human) = CSNK1E (human) (UniProt P49674)
# IGF1R (human) = IGF1R (human) (UniProt P08069)
# HIPK3 (human) = HIPK3 (human) (UniProt Q9H422)
# Sequence of SRPK3 (human) (Q9UPE1 whole entry, looked up): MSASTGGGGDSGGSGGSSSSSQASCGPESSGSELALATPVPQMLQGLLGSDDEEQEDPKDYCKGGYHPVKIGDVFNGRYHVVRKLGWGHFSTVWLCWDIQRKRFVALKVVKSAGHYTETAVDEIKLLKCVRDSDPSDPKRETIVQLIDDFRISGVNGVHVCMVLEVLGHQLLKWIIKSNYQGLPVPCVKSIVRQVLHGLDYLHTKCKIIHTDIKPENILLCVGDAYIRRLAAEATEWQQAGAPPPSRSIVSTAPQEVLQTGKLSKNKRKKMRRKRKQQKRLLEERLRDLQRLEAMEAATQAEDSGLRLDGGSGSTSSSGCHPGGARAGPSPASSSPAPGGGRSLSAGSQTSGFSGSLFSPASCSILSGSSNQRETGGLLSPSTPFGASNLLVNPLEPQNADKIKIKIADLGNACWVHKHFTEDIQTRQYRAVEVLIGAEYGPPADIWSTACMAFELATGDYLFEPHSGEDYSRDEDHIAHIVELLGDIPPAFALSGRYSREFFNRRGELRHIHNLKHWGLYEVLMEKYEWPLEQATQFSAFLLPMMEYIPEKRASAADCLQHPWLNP
structure (smiles),measurement,setting,value
N/C(=N\N=C/c1ccc(-c2cccc([N+](=O)[O-])c2)o1)N[N+](=O)[O-],residual activity,SRPK3 (human),100%
same,residual activity,MKNK2 (human),89.3%
same,residual activity,MINK1 (human),84.1%
same,residual activity,CSNK1D (human),99.8%
same,residual activity,MAP3K2 (human),97%
same,residual activity,NLK (human),103%
same,residual activity,EPHB2 (human),84.6%
same,residual activity,DSTYK (human),95.4%
same,residual activity,PRKG1 (human),87.4% and 95.8%
same,residual activity,MARK3 (human),107%
same,residual activity,IRAK4 (human),87.3%
same,residual activity,ABL1 (human),101%
same,residual activity,MST4 (human),99.5%
same,residual activity,CDK5 CDK5R1 p25 (human),96.5%
same,residual activity,CDK9 CCNK (human),95.7%
same,residual activity,SYK (human),91.8%
same,residual activity,FLT1 (human),97.6%
same,residual activity,PRKX (human),97.8%
same,residual activity,FES (human),101%
same,residual activity,CSK (human),98.5%
same,residual activity,BRSK1 (human),97.2%
same,residual activity,MAP3K14 (human),77.9%
same,residual activity,CLK3 (human),97.7%
same,residual activity,PAK7 (human),97%
same,residual activity,PRKCA (human),115%
same,residual activity,MAPKAPK3 (human),95.4%
same,residual activity,ULK2 (human),87.3%
same,residual activity,DYRK1B (human),104%
same,residual activity,PKN1 (human),93.9%
same,residual activity,MLTK (human),98%
same,residual activity,ABL2 (human),95.7%
same,residual activity,EPHA7 (human),97.9%
same,residual activity,ERBB2 (human),100%
same,residual activity,NEK6 (human),93.4%
same,residual activity,MAPK9 (human),111%
same,residual activity,PHKG2 (human),100%
same,residual activity,INSRR (human),99.2%
same,residual activity,JAK2 JH1 JH2 (human),98.8%
same,residual activity,CAMKK2 (human),114%
same,residual activity,CSNK1E (human),91%
same,residual activity,IGF1R (human),96.4%
N#Cc1c(NC(=O)c2cccc3ccccc23)sc2c1CCCC2,residual activity,HIPK3 (human),116%
same,residual activity,SRPK3 (human),95.7%
same,residual activity,MKNK2 (human),106%
same,residual activity,MINK1 (human),95.2%
same,residual activity,CSNK1D (human),106%
same,residual activity,MAP3K2 (human),84%
same,residual activity,NLK (human),99.4%
same,residual activity,EPHB2 (human),97.5%
same,residual activity,DSTYK (human),100%
same,residual activity,PRKG1 (human),101% and 94.6%
same,residual activity,MARK3 (human),97.1%
same,residual activity,IRAK4 (human),92.9%
same,residual activity,ABL1 (human),103%
same,residual activity,MST4 (human),102%
same,residual activity,CDK5 CDK5R1 p25 (human),100%
same,residual activity,CDK9 CCNK (human),90.5%
same,residual activity,SYK (human),97.6%
same,residual activity,FLT1 (human),84.4%
same,residual activity,PRKX (human),103%
same,residual activity,FES (human),103%
same,residual activity,CSK (human),91.5%
same,residual activity,BRSK1 (human),97%
same,residual activity,MAP3K14 (human),111%
same,residual activity,CLK3 (human),99.3%
same,residual activity,PAK7 (human),103%
same,residual activity,PRKCA (human),99.5%
same,residual activity,MAPKAPK3 (human),102%
same,residual activity,ULK2 (human),112%
same,residual activity,DYRK1B (human),101%
same,residual activity,PKN1 (human),108%
same,residual activity,MLTK (human),93.2%
same,residual activity,ABL2 (human),98.9%
same,residual activity,ERBB2 (human),97.6%
same,residual activity,NEK6 (human),101%
same,residual activity,MAPK9 (human),33.9%
same,residual activity,PHKG2 (human),101%
same,residual activity,INSRR (human),94.3%
same,residual activity,JAK2 JH1 JH2 (human),103%
same,residual activity,CAMKK2 (human),80.4%
same,residual activity,CSNK1E (human),102%
O=S(=O)(NCCNC/C=C/c1ccc(Br)cc1)c1cccc2cnccc12,residual activity,HIPK3 (human),81.7%
same,residual activity,SRPK3 (human),98%
same,residual activity,MKNK2 (human),78.7%
same,residual activity,MINK1 (human),91.1%
same,residual activity,MAP3K2 (human),91.5%
same,residual activity,NLK (human),94.9%
same,residual activity,EPHB2 (human),81.7%
same,residual activity,DSTYK (human),91.6%
same,residual activity,PRKG1 (human),26.3% and 41.1%
same,residual activity,MARK3 (human),96.2%
same,residual activity,IRAK4 (human),110%
same,residual activity,ABL1 (human),101%
same,residual activity,MST4 (human),94.8%
same,residual activity,CDK5 CDK5R1 p25 (human),113%
same,residual activity,CDK9 CCNK (human),85.5%
same,residual activity,SYK (human),77.7%
same,residual activity,FLT1 (human),90.8%
same,residual activity,PRKX (human),-2.49%
same,residual activity,FES (human),115%
same,residual activity,CSK (human),95.6%
same,residual activity,BRSK1 (human),92%
same,residual activity,MAP3K14 (human),83.6%
same,residual activity,CLK3 (human),87.6%
same,residual activity,PAK7 (human),91.4%
same,residual activity,PRKCA (human),85.7%
same,residual activity,MAPKAPK3 (human),97.8%
same,residual activity,ULK2 (human),98.9%
same,residual activity,DYRK1B (human),95.3%
same,residual activity,PKN1 (human),14.3%
same,residual activity,MLTK (human),105%
same,residual activity,ABL2 (human),84.4%
same,residual activity,EPHA7 (human),109%
same,residual activity,ERBB2 (human),119%
same,residual activity,NEK6 (human),100%
same,residual activity,MAPK9 (human),93.4%
same,residual activity,PHKG2 (human),88.8%
same,residual activity,INSRR (human),103%
same,residual activity,JAK2 JH1 JH2 (human),109%
same,residual activity,CAMKK2 (human),95.6%
same,residual activity,CSNK1E (human),107%
same,residual activity,IGF1R (human),104%

# Source: the kinase profiling compilation of Christmann-Franck et al. (2016)
